Measurements as given in patent publication US9108939B2, “(1, 1, 1,3,3,3-hexafluoro-2 hydroxypropan-2-yl) phenyl derivative, pharmaceutical compositions thereof and their use for the treatment of atherosclerosis” (Merck Sharp & Dohme B.V., priority 2009, dated 2015).

target: T1, recombinant human LXRβ-LBD-GST (Homo sapiens, UniProt P55055); experiment: Radioligand competition binding scintillation proximity assay (SpA), LXRβ; conditions: not given
T1 construct: The LBD of LXRα or LXRβ was amplified by PCR and sub-cloned into the prokaryotic expression vector pGEX-4T-1; made in house; host or cells: E. coli
T1 sequence (P55055 222-460 limits assumed): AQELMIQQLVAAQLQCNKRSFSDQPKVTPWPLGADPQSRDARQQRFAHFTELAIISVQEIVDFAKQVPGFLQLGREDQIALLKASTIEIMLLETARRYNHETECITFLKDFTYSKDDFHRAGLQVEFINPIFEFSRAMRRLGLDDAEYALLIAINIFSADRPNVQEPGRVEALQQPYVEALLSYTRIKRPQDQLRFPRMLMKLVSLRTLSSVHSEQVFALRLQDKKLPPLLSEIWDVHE
Description: Radioligand Competition Binding Scintillation Proximity Assay (SpA) Using Recombinant Human LXRα or LXRβ Protein
These assays utilise the purified ligand binding domain (LBD) of Liver X Receptor alpha (LXRα) or Liver X Receptor beta (LXRβ) fused to […] (GST) tagged protein (LXRα-LBD-GST and LXRβ-LBD-GST respectively) and scintillation proximity assay (SpA) technology to determine binding affinities (pKi) of compounds at the ligand binding domain (LBD) of the human nuclear hormone receptor LXRα or LXRβ.
Preparation of Recombinant Human LXRα and LXRβ
Human LXRα and LXRβ were expressed as GST-fusion proteins in E. coli.
The LBD of LXRα or LXRβ was amplified by PCR and sub-cloned into the prokaryotic expression vector pGEX-4T-1 (GE Healthcare). […] E. coli, containing either the LXRα or LXRβ pGEX-4T-1 plasmid, were propagated, induced, and harvested by centrifugation. The bacterial pellets were resuspended in lysis buffer containing 50 mM tris(Hydroxymethyl)aminomethane (TRIS)-pH 8.0, 100 mM Sodium Chloride (NaCl), 1 mM ethylenediaminetetraacetic acid (EDTA) and one tablet of Proteinase inhibitor cocktail complete/EDTA free (Roche) (per 50 mL of buffer). The mixtures were sonicated on ice with a Branson sonifier. The suspensions were centrifuged and dithiothreitol (DTT) added to the supernatants to obtain a final concentration of 25 mM. […] Proteins were stored in 20 mM N2-hydroxyethylpiperazine-N′-2-ethanesulfonic acid (HEPES), 2 mM DTT with 10% glycerol at −80° C.
Binding to LXRα or LXRβ LBDs
For LXRα or LXRβ assays, an aliquot of recombinant human LXRα-LBD-GST or LXRβ-LBD-GST protein was diluted to 0.5 μg/mL and incubated in a final volume of 100 μL SpA buffer (10 mM potassium hydrogen phosphate anhydrous [K2HPO4], 10 mM potassium Phosphate Monobasic [KH2PO4], 2 mM EDTA pH 7.1, 50 mM NaCl, 1 mM DTT, 2 mM 3-[(3-cholamidopropyl)dimethylammonio]-1-propanesulfonate (CHAPS)) containing Protein-A coupled scintillant filled YtSi SpA beads (GE Healthcare), to a final concentration of 1 mg/mL and Goat anti-GST antibody (GE Healthcare) to a final concentration of 5 μg/mL. […] Test compounds were assayed over a concentration range. After incubation, the assay plates were read on a Packard TopCount.

Ki | Structure (SMILES)
5.89 nM | O=C(Nc1ccc(OC2CCN(Cc3ccc(C(O)(C(F)(F)F)C(F)(F)F)cc3)CC2)cc1)Nc1ccnnc1 [Example 1F, 1-(4-(1-(4-(1,1,1,3,3,3-Hexafluoro-2-hydroxypropan-2-yl)benzyl)piperidin-4-yloxy)phenyl)-3-(pyridazin-4-yl)urea]

same assay, conditions: read-out: LXRβ pKi (converted)

Structure (SMILES) | Ki
O=C(Nc1ccc(CC2CCN(Cc3ccc(C(O)(C(F)(F)F)C(F)(F)F)cc3)CC2)cc1)NC1COC1 [Example 6P, 1-(4-((1-(4-(1,1,1,3,3,3-Hexafluoro-2-hydroxypropan-2-yl)benzyl)piperidin-4-yl)methyl)phenyl)-3-(oxetan-3-yl)urea] | 9.12 nM
O=C(Nc1ccc(CC2CCN(Cc3ccc(C(O)(C(F)(F)F)C(F)(F)F)cc3)CC2)cc1)Nc1ccncn1 [Example 7B, 1-(4-((1-(4-(1,1,1,3,3,3-Hexafluoro-2-hydroxypropan-2-yl)benzyl)piperidin-4-yl)methyl)phenyl)-3-(pyrimidin-4-yl)urea] | 4.27 nM
CC(C)(O)CNC(=O)Nc1ccc(CC2CCN(Cc3ccc(C(O)(C(F)(F)F)C(F)(F)F)cc3)CC2)cc1Cl [Example 17, 1-(2-Chloro-4-((1-(4-(1,1,1,3,3,3-hexafluoro-2-hydroxypropan-2-yl)benzyl)piperidin-4-yl)methyl)phenyl)-3-(2-hydroxy-2-methylpropyl)urea] | 6.03 nM
O=C(Nc1ccc(OC2CCN(Cc3ccc(C(O)(C(F)(F)F)C(F)(F)F)cc3)CC2)cc1)Nc1ccncn1 [Example 2E, 1-(4-(1-(4-(1,1,1,3,3,3-Hexafluoro-2-hydroxypropan-2-yl)benzyl)piperidin-4-yloxy)phenyl)-3-(pyrimidin-4-yl)urea] | 3.02 nM
O=C(Nc1ccncc1)Nc1ccc(OC2CCN(Cc3ccc(C(O)(C(F)(F)F)C(F)(F)F)cc3)CC2)cc1 [Example 2, 1-(4-(1-(4-(1,1,1,3,3,3-Hexafluoro-2-hydroxypropan-2-yl)benzyl)piperidin-4-yloxy)phenyl)-3-(pyridin-4-yl)urea] | 2.04 nM
O=C(Nc1ccncc1)Nc1ccc(CC2CCN(Cc3ccc(C(O)(C(F)(F)F)C(F)(F)F)cc3)CC2)cc1F [Example 13, 1-(2-Fluoro-4-((1-(4-(1,1,1,3,3,3-hexafluoro-2-hydroxypropan-2-yl)benzyl)piperidin-4-yl)methyl)phenyl)-3-(pyridin-4-yl)urea] | 5.5 nM
O=C(Nc1ccc(OC2CCN(Cc3ccc(C(O)(C(F)(F)F)C(F)(F)F)cc3)CC2)cc1)NC1CCOCC1 [Example 1C, 1-(4-(1-(4-(1,1,1,3,3,3-Hexafluoro-2-hydroxypropan-2-yl)benzyl)piperidin-4-yloxy)phenyl)-3-(tetrahydro-2H-pyran-4-yl)urea] | 9.77 nM
CC(C)(O)CNC(=O)Nc1cc(F)c(CC2CCN(Cc3ccc(C(O)(C(F)(F)F)C(F)(F)F)cc3)CC2)cc1F [Example 16, 1-(2,5-Difluoro-4-((1-(4-(1,1,1,3,3,3-hexafluoro-2-hydroxypropan-2-yl)benzyl)piperidin-4-yl)methyl)phenyl)-3-(2-hydroxy-2-methylpropyl)urea] | 24.5 nM
O=C(Nc1ccc(OC2CCN(Cc3ccc(C(O)(C(F)(F)F)C(F)(F)F)cc3)CC2)cc1)Nc1ccncc1F [Example 2C, 1-(3-Fluoropyridin-4-yl)-3-(4-(1-(4-(1,1,1,3,3,3-hexafluoro-2-hydroxypropan-2-yl)benzyl)piperidin-4-yloxy)phenyl)urea] | 2 nM
O=C(Nc1ccc(CC2CCN(Cc3ccc(C(O)(C(F)(F)F)C(F)(F)F)cc3)CC2)cc1)Nc1ccncc1F [Example 6S, 1-(3-Fluoropyridin-4-yl)-3-(4-((1-(4-(1,1,1,3,3,3-hexafluoro-2-hydroxypropan-2-yl)benzyl)piperidin-4-yl)methyl)phenyl)urea] | 7.41 nM
CC(C)(O)CNC(=O)Nc1ccc(OC2CCN(Cc3ccc(C(O)(C(F)(F)F)C(F)(F)F)cc3)CC2)cc1 [Example 1D, 1-(4-(1-(4-(1,1,1,3,3,3-Hexafluoro-2-hydroxypropan-2-yl)benzyl)piperidin-4-yloxy)phenyl)-3-(2-hydroxy-2-methylpropyl)urea] | 11.5 nM
O=C(Nc1ccncc1)Nc1ccc(CC2CCN(Cc3ccc(C(O)(C(F)(F)F)C(F)(F)F)cc3)CC2)cc1 [Example 7, 1-(4-((1-(4-(1,1,1,3,3,3-Hexafluoro-2-hydroxypropan-2-yl)benzyl)piperidin-4-yl)methyl)phenyl)-3-(pyridin-4-yl)urea] | 7.94 nM

More lines, now with the values ahead:

Ki | Structure (SMILES)
21.9 nM | O=C(Nc1ccc(CC2CCN(Cc3ccc(C(O)(C(F)(F)F)C(F)(F)F)cc3)CC2)cc1F)NC1COC1 [Example 12AE, 1-(2-Fluoro-4-((1-(4-(1,1,1,3,3,3-hexafluoro-2-hydroxypropan-2-yl)benzyl)piperidin-4-yl)methyl)phenyl)-3-(oxetan-3-yl)urea]
7.94 nM | CC(O)(CNC(=O)Nc1cc(F)c(CC2CCN(Cc3ccc(C(O)(C(F)(F)F)C(F)(F)F)cc3)CC2)cc1F)C(F)(F)F (centres unmarked) [Example 16B, 1-(2,5-Difluoro-4-((1-(4-(1,1,1,3,3,3-hexafluoro-2-hydroxypropan-2-yl)benzyl)piperidin-4-yl)methyl)phenyl)-3-(3,3,3-trifluoro-2-hydroxy-2-methylpropyl)urea]
9.77 nM | O=C(Nc1ccncn1)Nc1ccc(CC2CCN(Cc3ccc(C(O)(C(F)(F)F)C(F)(F)F)cc3)CC2)cc1F [Example 13B, 1-(2-Fluoro-4-((1-(4-(1,1,1,3,3,3-hexafluoro-2-hydroxypropan-2-yl)benzyl)piperidin-4-yl)methyl)phenyl)-3-(pyrimidin-4-yl)urea]
4.9 nM | O=C(Nc1cnoc1)Nc1ccc(CC2CCN(Cc3ccc(C(O)(C(F)(F)F)C(F)(F)F)cc3)CC2)cc1F [Example 12D, 1-(2-Fluoro-4-((1-(4-(1,1,1,3,3,3-hexafluoro-2-hydroxypropan-2-yl)benzyl)piperidin-4-yl)methyl)phenyl)-3-(isoxazol-4-yl)urea]
2.75 nM | O=C(NCC(O)C(F)(F)F)Nc1ccc(CC2CCN(Cc3ccc(C(O)(C(F)(F)F)C(F)(F)F)cc3)CC2)cc1F (centres unmarked) [Example 12I, 1-(2-Fluoro-4-((1-(4-(1,1,1,3,3,3-hexafluoro-2-hydroxypropan-2-yl)benzyl)piperidin-4-yl)methyl)phenyl)-3-(3,3,3-trifluoro-2-hydroxypropyl)urea]
5.75 nM | CC(O)(CNC(=O)Nc1ccc(CC2CCN(Cc3ccc(C(O)(C(F)(F)F)C(F)(F)F)cc3)CC2)cc1F)C(F)(F)F (centres unmarked) [Example 12AA, 1-(2-Fluoro-4-((1-(4-(1,1,1,3,3,3-hexafluoro-2-hydroxypropan-2-yl)benzyl)piperidin-4-yl)methyl)phenyl)-3-(3,3,3-trifluoro-2-hydroxy-2-methylpropyl)urea]
9.55 nM | Cc1cc(NC(=O)Nc2ccc(CC3CCN(Cc4ccc(C(O)(C(F)(F)F)C(F)(F)F)cc4)CC3)cc2F)no1 [Example 12E, 1-(2-Fluoro-4-((1-(4-(1,1,1,3,3,3-hexafluoro-2-hydroxypropan-2-yl)benzyl)piperidin-4-yl)methyl)phenyl)-3-(5-methylisoxazol-3-yl)urea]
21.9 nM | O=C(Nc1ccc(CC2CCN(Cc3ccc(C(O)(C(F)(F)F)C(F)(F)F)cc3)CC2)cc1F)NC1CCOCC1 [Example 12AG, 1-(2-Fluoro-4-((1-(4-(1,1,1,3,3,3-hexafluoro-2-hydroxypropan-2-yl)benzyl)piperidin-4-yl)methyl)phenyl)-3-(tetrahydro-2H-pyran-4-yl)urea]
17 nM | CC(C)(O)CNC(=O)Nc1ccc(CC2CCN(Cc3ccc(C(O)(C(F)(F)F)C(F)(F)F)cc3)CC2)cc1F [Example 12AC, 1-(2-Fluoro-4-((1-(4-(1,1,1,3,3,3-hexafluoro-2-hydroxypropan-2-yl)benzyl)piperidin-4-yl)methyl)phenyl)-3-(2-hydroxy-2-methylpropyl)urea]
17 nM | O=C(Nc1ccc(CC2CCN(Cc3ccc(C(O)(C(F)(F)F)C(F)(F)F)cc3)CC2)cc1F)N[C@H]1CCOC1 [Example 12F, (S)-1-(2-Fluoro-4-((1-(4-(1,1,1,3,3,3-hexafluoro-2-hydroxypropan-2-yl)benzyl)piperidin-4-yl)methyl)phenyl)-3-(tetrahydrofuran-3-yl)urea]
